According to US8901118B2, “Compounds and methods for kinase modulation, and indications therefor” (Plexxikon Inc., priority 2010, dated 2014):

How the values were obtained:
[1] = molecular target: c-Kit kinase (Homo sapiens, UniProt P10721); assay: c-Kit kinase biochemical activity assay (AlphaScreen, biotin-(E4Y)10 phosphorylation); details: 100 μM ATP; read-out: Biochemical Inhibition IC50 Kit
How it was run: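 AlphaScreen read-out (streptavidin donor, anti-phosphotyrosine PY20 acceptor beads, EDTA stop) of c-Kit activity. Reaction: 0.75 ng kinase, 100 µM ATP, 30 nM biotin-(E4Y)10, 25 mM HEPES pH 7.5, 2 mM MgCl2, 2 mM MnCl2, 5% DMSO, 1 h room temperature. IC50 derived over an 8-point, two-fold dilution series.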

[2] = molecular target: CYP2C9 (Homo sapiens, UniProt P11712); assay: CYP2C9 inhibition (fluorescent substrate MFC); type: in vitro ADME; details: read-out: Cyp IC50 2C9
Sequence of CYP2C9 (P11712 whole entry): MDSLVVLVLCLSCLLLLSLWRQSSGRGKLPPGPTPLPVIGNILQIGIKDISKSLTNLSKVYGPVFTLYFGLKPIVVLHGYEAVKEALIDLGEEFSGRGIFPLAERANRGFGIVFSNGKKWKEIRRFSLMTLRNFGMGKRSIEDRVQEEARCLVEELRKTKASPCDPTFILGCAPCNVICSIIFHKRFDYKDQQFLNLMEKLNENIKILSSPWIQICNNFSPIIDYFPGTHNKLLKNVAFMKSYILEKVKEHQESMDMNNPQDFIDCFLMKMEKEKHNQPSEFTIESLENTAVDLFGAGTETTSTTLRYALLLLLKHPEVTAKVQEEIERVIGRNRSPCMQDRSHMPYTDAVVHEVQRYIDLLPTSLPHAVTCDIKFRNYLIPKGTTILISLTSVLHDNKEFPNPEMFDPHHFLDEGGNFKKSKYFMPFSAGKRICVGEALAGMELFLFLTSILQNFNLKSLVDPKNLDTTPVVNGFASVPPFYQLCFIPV
How it was run: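 Test compound titrated 1:1 across ten concentrations; metabolite fluorescence measured after 37 °C incubation of 15 min (CYP1A2), 30 min (CYP2C19, CYP2D6) or 45 min (CYP2C9). IC50 from signal versus concentration.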

Sequence of c-Kit kinase (P10721 26-976): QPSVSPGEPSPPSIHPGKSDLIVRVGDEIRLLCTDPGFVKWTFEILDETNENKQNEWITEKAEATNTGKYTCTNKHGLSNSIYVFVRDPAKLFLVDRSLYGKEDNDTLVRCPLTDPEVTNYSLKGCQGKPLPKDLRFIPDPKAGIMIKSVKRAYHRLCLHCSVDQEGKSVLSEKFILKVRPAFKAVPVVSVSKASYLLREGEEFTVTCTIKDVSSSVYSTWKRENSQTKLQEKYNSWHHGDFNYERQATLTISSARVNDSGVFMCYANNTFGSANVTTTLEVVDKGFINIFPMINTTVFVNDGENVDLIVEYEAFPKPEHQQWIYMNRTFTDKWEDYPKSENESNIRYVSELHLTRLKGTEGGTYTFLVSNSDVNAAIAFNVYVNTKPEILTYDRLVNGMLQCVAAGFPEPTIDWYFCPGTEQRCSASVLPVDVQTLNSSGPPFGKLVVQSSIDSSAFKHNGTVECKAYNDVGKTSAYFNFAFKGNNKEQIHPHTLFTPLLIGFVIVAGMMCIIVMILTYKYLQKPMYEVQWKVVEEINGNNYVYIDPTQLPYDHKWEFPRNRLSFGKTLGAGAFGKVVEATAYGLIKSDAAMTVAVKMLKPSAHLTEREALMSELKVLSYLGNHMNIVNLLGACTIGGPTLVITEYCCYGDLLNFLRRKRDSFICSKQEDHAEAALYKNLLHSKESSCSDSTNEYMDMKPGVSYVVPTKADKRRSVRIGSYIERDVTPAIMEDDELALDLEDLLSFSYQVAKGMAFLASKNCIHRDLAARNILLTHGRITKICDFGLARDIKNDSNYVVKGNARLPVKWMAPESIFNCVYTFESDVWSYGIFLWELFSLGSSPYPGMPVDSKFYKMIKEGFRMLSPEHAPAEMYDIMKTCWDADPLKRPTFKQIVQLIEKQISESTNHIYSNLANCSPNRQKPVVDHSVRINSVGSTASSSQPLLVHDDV

Structure (SMILES)	IC50 [1] [µM]	IC50 [2] [µM]
CCOc1ccc(Nc2ccc(C(=O)c3c[nH]c4ncnc(OC)c34)c(F)n2)cn1 [Compound P-4024, [6-(6-Ethoxy-pyridin-3-ylamino)-2-fluoro-pyridin-3-yl]-(4-methoxy-7H-pyrrolo[2,3-d]pyrimidin-5-yl)-methanone]	< 1	> 10
CCOc1ncnc2[nH]cc(C(=O)c3ccc(Nc4ccc(OC)nc4)nc3F)c12 [Compound P-4025, (4-Ethoxy-7H-pyrrolo[2,3-d]pyrimidin-5-yl)-[2-fluoro-6-(6-methoxy-pyridin-3-ylamino)-pyridin-3-yl]-methanone]	> 1	> 10
Cc1ccc(Nc2ccc(Cc3c[nH]c4ncnc(C5CC5)c34)c(F)n2)cn1 [Compound P-4030, [5-(4-Cyclopropyl-7H-pyrrolo[2,3-d]pyrimidin-5-ylmethyl)-6-fluoro-pyridin-2-yl]-(6-methyl-pyridin-3-yl)-amine]	< 1	> 10
CCn1cc(Nc2ccc(Cc3c[nH]c4ncnc(C5CC5)c34)c(F)n2)cn1 [Compound P-4036, [5-(4-Cyclopropyl-7H-pyrrolo[2,3-d]pyrimidin-5-ylmethyl)-6-fluoro-pyridin-2-yl]-(1-ethyl-1H-pyrazol-4-yl)-amine]	< 1	5 to 10
CCn1cc(Nc2ccc(C(=O)c3c[nH]c4ncnc(C5CC5)c34)c(F)n2)cn1 [Compound P-4037, (4-Cyclopropyl-7H-pyrrolo[2,3-d]pyrimidin-5-yl)-[6-(1-ethyl-1H-pyrazol-4-ylamino)-2-fluoro-pyridin-3-yl]-methanone]	< 1	5 to 10
Fc1nc(NC2CCC(F)(F)CC2)ccc1Cc1c[nH]c2ncnc(NCC(F)(F)F)c12 [Compound P-4128, 5-[[6-[(4,4-difluorocyclohexyl)amino]-2-fluoro-3-pyridyl]methyl]-N-(2,2,2-trifluoroethyl)-7H-pyrrolo[2,3-d]pyrimidin-4-amine]	> 1	> 10
Fc1nc(NC2CCC(F)(F)CC2)ccc1Cc1c[nH]c2ncnc(NC3CC3)c12 [Compound P-4129, N-cyclopropyl-5-[[6-[(4,4-difluorocyclohexyl)amino]-2-fluoro-3-pyridyl]methyl]-7H-pyrrolo[2,3-d]pyrimidin-4-amine]	< 1	5 to 10
Fc1nc(Nc2ccc(C3CC3)nc2)ccc1Cc1c[nH]c2ncnc(NCC(F)(F)F)c12 [Compound P-4130, 5-[[6-[(6-cyclopropyl-3-pyridyl)amino]-2-fluoro-3-pyridyl]methyl]-N-(2,2,2-trifluoroethyl)-7H-pyrrolo[2,3-d]pyrimidin-4-amine]	< 1	> 10

The next lines start with the values.

IC50 [1] [µM]	IC50 [2] [µM]	Structure (SMILES)
< 0.1	> 10	CCOc1ncnc2[nH]cc(Cc3ccc(Nc4ccc(OC)nc4)nc3F)c12 [Compound P-4018, [5-(4-Ethoxy-7H-pyrrolo[2,3-d]pyrimidin-5-ylmethyl)-6-fluoro-pyridin-2-yl]-(6-methoxy-pyridin-3-yl)-amine]
< 1	> 10	COCCOc1ncnc2[nH]cc(Cc3ccc(Nc4ccc(OC)nc4)nc3F)c12 [Compound P-4019, {6-Fluoro-5-[4-(2-methoxy-ethoxy)-7H-pyrrolo[2,3-d]pyrimidin-5-ylmethyl]-pyridin-2-yl}-(6-methoxy-pyridin-3-yl)-amine]
< 1	> 10	COc1ccc(Nc2ccc(C(=O)c3c[nH]c4ncnc(C5CC5)c34)c(F)n2)cn1 [Compound P-4022, (4-cyclopropyl-7H-pyrrolo[2,3-d]pyrimidin-5-yl)-[2-fluoro-6-(6-methoxy-pyridin-3-ylamino)-pyridin-3-yl]-methanone]
< 1	> 10	COc1ccc(Nc2ccc(Cc3c[nH]c4ncnc(C5CC5)c34)c(F)n2)cn1 [Compound P-4023, [5-(4-cyclopropyl-7H-pyrrolo[2,3-d]pyrimidin-5-ylmethyl)-6-fluoro-pyridin-2-yl]-(6-methoxy-pyridin-3-yl)-amine]
< 0.1	5 to 10	CCc1ccc(Nc2ccc(Cc3c[nH]c4ncnc(C5CC5)c34)c(F)n2)cn1 [Compound P-4028, [5-(4-Cyclopropyl-7H-pyrrolo[2,3-d]pyrimidin-5-ylmethyl)-6-fluoro-pyridin-2-yl]-(6-ethyl-pyridin-3-yl)-amine]
< 0.1	> 10	CCc1ccc(Nc2ccc(C(=O)c3c[nH]c4ncnc(C5CC5)c34)c(F)n2)cn1 [Compound P-4029, (4-Cyclopropyl-7H-pyrrolo[2,3-d]pyrimidin-5-yl)-[6-(6-ethyl-pyridin-3-ylamino)-2-fluoro-pyridin-3-yl]-methanone]
< 0.1	> 10	Cc1ccc(Nc2ccc(C(=O)c3c[nH]c4ncnc(C5CC5)c34)c(F)n2)cn1 [Compound P-4031, (4-Cyclopropyl-7H-pyrrolo[2,3-d]pyrimidin-5-yl)-[2-fluoro-6-(6-methyl-pyridin-3-ylamino)-pyridin-3-yl]-methanone]
